Experiment [1] has as its system cerebellar granule cell (CGC) cultures. The experiment is described as follows: Iodoacetate induced cell toxicity in culture (cell death, MTT-reductase activity). The settings on record: protection of CGC after 30-µM IAA for 30 min (with 10-µM MK-801), 24 hour incubation with test compound. Type of experiment: cell-based. As for the experimental part: After 6-8 days in culture, cerebellar granule cell (CGC) cultures in 96-well plates (250,000 cells per well) were prepared for hypoglycaemia. lodoacetate (IAA) was made up in a balanced salt solution (BSS) (NaCl, 154.0-mM; KCl, 5.6-mM; MgCl2, 1.0-mM; CaCl2, 2.5-mM; N-[2-hydroxyethyl]piperazine-N'-[2-ethanesulfonic acid] (HEPES), 10.0-mM; D-glucose, 5.6-mM; pH 7.4) and any neuroprotective agents were made up in pre-warmed tissue culture media and allowed to equilibrate in a controlled environment (5 % CO2, 95 % air). The assay was initiated by aspiration of the maintenance media, which was replaced by either BSS (control) or 30-µM IAA in BSS, both solutions containing 10-µM of the NMDA receptor antagonist MK-801. The exposure to IAA was for 30 min only at 37 °C, after which time the BSS was aspirated and replaced with fresh, pre-equilibriated maintenance media containing various concentrations of test compound. All conditions were performed at least in duplicate in each 96 well plate. The final volume for each well was always 200 µL. Following a 24 hour incubation, visual inspection of the cells was followed by quantification of neuronal cell death by measuring 3-[4,5-dimethylthiazol-2-yl]-2,5-diphenyltetrazolium bromide (MTT)-reductase activity as described previously (Malcolm et al., J. Neurochem. 1996, 66, 2350-2360).

Experiment [2] concerns Lipid peroxidation in rat brain homogenates. In words: Lipid peroxidation assay (ascorbic acid-induced, TBA/MDA readout). Format: biochemical. The settings on record: concentration required to inhibit lipid peroxidation by 50%; rat cortex preparation, 500-µM L-ascorbic acid, 37 °C, 30 min. As for the experimental part: Lipid peroxidation in rat brain homogenates is a general procedure used to measure the antioxidant capacity of molecules in a biological environment (Das N.P. and Ratty A.K., Biochem. Med. Metab. Biol, 1987, 37, 256-264).
Rat cortex was homogenised in 20 vols. of ice cold 0.32-M sucrose and centrifuged at 1,000 g for 10 min. The pellet was discarded whilst the resulting supernatant was centrifuged at 15,000 g for 20 min at 4 °C to yield p2 pellets. The pellet was re-suspended in ice-cold 50.0-mM phosphate buffer and centrifuged at 30,000 g for 20 min at 4 °C. The pellet was re-suspended in 30 vols. of 50.0-mM phosphate buffer and used immediately in the assay.
Assays contained 500-µM L-ascorbic acid to induce lipid peroxidation, plus various concentrations of test compound, with the tissue preparation in a total volume of 500 µL. This was incubated at 37 °C for 30 min. Lipid peroxidation was measured by adding to the reaction mixture, 300 µL 40 % (w/v) trichloroacetic acid, 150 µL 5.0-M HCl and 300 µL 2 % (w/v) 2-thiobarbituric acid (TBA). […] The pink colour of the supernatant was assessed spectrophotometrically at a wavelength of 532 nm. The amount of malondialdehyde (MDA) in the samples was calculated using a standard curve prepared with malondialdehyde tetrabutylammonium salt (Das, N.P. and Ratty, A.K. Biochem. Med. Metab. Biol. (1987), 37, 256-264). […]

Where a name gives a salt, the structure may show the parent alone.

As for `COc1ccc2[nH]cc(CCNC(=O)CCn3ccc(=O)c(O)c3C)c2c1` [Example 1, 3-(1,4-Dihydro-3-hydroxy-2-methyl-4-oxo-1-pyridinyl)-N-(2-(5-methoxy-3-indolyl)ethyl)propanamide mesylate], the EC50 in experiment [1] turned out to be 4.9 µM. The IC50 in experiment [2] was found to be 1.5 µM.

Take `COc1ccc2[nH]cc(CCn3ccc(=O)c(O)c3C)c2c1` [Example 2, 3-Hydroxy-1-(2-(5-methoxy-3-indolyl)ethyl)-2-methyl-4(1H)-pyridinone]: the response in experiment [1] was half-maximal at 11.9 µM (EC50). For the same compound, in experiment [2], half-maximal inhibition (IC50) required 2 µM.

By EC50 is commonly meant the midpoint of the concentration-response curve. Lower therefore signals a more potent agent. In general, IC50 refers to the concentration needed to halve the response being measured.

(Values after patent EP1006112A1, “3-Hydroxy-2(1H)-pyridinone or 3-hydroxy-4(1H)-pyridinone derivatives useful as reactive oxygen species (ROS) scavengers” (Cerebrus Pharmaceuticals Limited, priority 1998, dated 2000).)
